“And” between values parts separate entries of the source, which are not always exact repeats. Identical values can stand only once.
What was measured:
HLA-A2.1-transgenic mice = test: CTL test after immunization with peptides/compositions/epitopes; format: in vivo; details: FIG. 10; 18 nmoles of D peptide versus 60 nmoles of ALY epitope, ALY epitope as target
Experimental: In order to do this, 2 sub-cutaneous injections were administered into the base of the tail of each mouse, with an interval of 15 days, of a mixture containing 18 nmoles of peptide of the invention and 18 nmoles of the HBV core helper peptide in incomplete Freund's adjuvant (IFA, Brinster et al., Hepatology 2001) or containing 60 nmoles of epitope of the invention and 60 nmoles of the helper peptide in IFA.
The control mice received only the helper peptide in IFA.
Fifteen days after the 2nd injection, the cell response was analyzed by isolating the spleen cells (splenocytes) of mice and a CTL test and an ELISPOT test were carried out as follows:
For the CTL test, these splenocytes were cultured in 24-well plates in the presence of 5 μM of the peptide or epitope of interest and 10 U of recombinant murine interleukin-2 (Brinster et al., Hepatology 2001) per ml in alpha minimum essential medium (αMEM) for 5 days. […] The specific cytotoxic activity of the effective cells was determined by measuring, after 4 hours of incubation with the target cells, the Cr^51 released following the lysis of the target cells using a γ-Cobra II (Packard, Rungis, France) counting device. The spontaneous and maximum release from wells containing either the medium alone, or the lysis buffer (HCl 1N) were determined. […]

[1] = tested on: blood cells from 3 patients infected by the hepatitis C virus of genotype 1 and having an HLA of type HLA-A2+; details: ELISPOT, 48 hours, positive if more than 20 spots per well
Experimental: The ability of blood cells from 3 patients infected by the hepatitis C virus of genotype 1 and having an HLA of type HLA-A2+ to produce gamma-interferon cytokines and interleukin-10, in response to two peptides predicted by software developed by bioMerieux (Centre d'Immunologie de Pierre Fabre) to bind to the HLA-A2 molecule was tested.
The assay of these cytokines reflects the ability of the peptides to induce immune responses to cell mediation, either of type 1 (gamma interferon), or of type 2 (interleukin-10)
After 48 hours of incubation at 37° C., a period during which the cells specific to the peptides will locally produce cytokines which will bind to the specific antibodies, anti-gamma interferon or anti-interleukin-10 antibodies, alkaline phosphatase coupled to avidine and the alkaline phosphatase substrate (NBT/BCIP) were added.
The violet-blue spots, which represent each gamma-interferon or interleukin-10-producing cell were counted, using Zeiss's ELISPOT automated reader (KS Elispot) and only considered positive when the number of spots per well was greater than 20.

[2] = tested on: Mice transgenic for the molecule HLA.A2.1; test: ELISPOT after immunization of transgenic mice with predicted epitopes; format: in vivo; details: three individual mice; two injections of epitope 60 μM + T-helper peptide in IFA; two weeks after last immunization
Experimental: Mice transgenic for the molecule HLA.A2.1 and devoid of murine class 1 molecules (Pascolo S., et al., 1997, J. Exp Med., 185: 2043-2051) were immunized with the FLL and ILA epitopes predicted as being class I epitopes restricted by the molecule HLA.A2.1.
In order to do this, the mice were immunized in the base of their tails with a peptide mixture containing one of the above epitopes (60 μM) and the T-helper peptide (Lone, Y. C. et al., (1998), J. Immunother. 21:283-294) (60 μM) emulsified in incomplete Freund's adjuvant (Sigma St Louis, Mo.). The mice received two injections with an interval of two weeks and the immune responses were analyzed two weeks after the last immunization as indicated in Example 1 (Elispot).

| Substance | lysis effectiveness (HLA-A2.1-transgenic mice) | production of gamma interferon [1] | production of interleukin-10 [1] | Number of spots/10^6 cells (gamma-interferon-producing cells) [2] |
| --- | --- | --- | --- | --- |
| D peptide: D peptide of sequence SEQ ID NO: 176, in NS5b between positions 2573 and 2601 of the viral polyprotein | identical lysis effectiveness |  |  |  |
| FLATCVNGV |  | little if any production | little if any production |  |
| ILAGYAGAGV |  |  |  | 5 spots/10^6 cells and 2 spots/10^6 cells and 0 spots/10^6 cells |
| LLGCIITSL |  | significant production of gamma interferon in 2 of the 3 patients | significant production |  |

From US8293528B2, “Peptide compositions and their use in particular in the preparation of pharmaceutical compositions active against the hepatitis C virus” (priority 2002, dated 2012)
